Each structure is given as a SMILES string. A value given as a limit tells only on which side of the number the result lay.

Experimental findings from US5962531A, “5-aroylnaphthalene derivatives as anti-inflammatory agents” (Syntex (U.S.A.) Inc., priority 1998, dated 1999) are described below.

In experiment [1] the test system is carrageenan-induced paw edema. Description: Inhibition of carrageenan-induced paw edema in the rat. The class given is in vivo. Conditions: oral, female rats. The procedure:
The anti-inflammatory activity of compounds of this invention was determined by measuring the inhibition of carrageenan-induced paw edema in the rat, using a modification of the method described in Winter C. A. et al., "Carrageenan-Induced Edema in Hind Paw of the Rat as an Assay for Anti-inflammatory Drugs" Proc. Soc. Exp. Biol. Med. 111, 544-547, (1962). This assay has been used as a primary in vivo screen for anti-inflammatoryactivity of most NSAIDs, and is considered predictive of human efficacy. Briefly, test materials were administered orally to female rats in a volume of 1 ml prepared as solutions or suspensions in an aqueous vehicle containing 0.9% sodium chloride, 0.5% sodium carboxymethyl-cellulose, 0.4% polysorbate 80, 0.9% benzyl alcohol and 97.3% distilled water. Control rats received vehicle alone. After 1 h 0.05 ml of a 0.5% solution of Carrageenan (Type IV Lambda, Sigma Chemical Co.) in 0.9% saline was injected into the subplantar region of the right hind paw. Three hours later the rats were euthanized in a carbon dioxide atmosphere; hind paws were removed by severing at the tatso-crural joint; and the left and right paws were weighed. The increase in weight of the right paw over the left paw was obtained for each animal and the mean increases were calculated for each group. The anti-inflammatory activity of the test materials is expressed as the percent inhibition of the increase in hind paw weight of the test group relative to the vehicle dosed control group.
The anti-inflammatory activities (expressed as % inhibition) of some of the compounds of the invention were: […]

Another experiment concerns the target T1, COX I (Homo sapiens, UniProt P23219).
T1 construct: made in house; baculovirus-infected insect cells according to the cited Barnett et al. 1994 (own knowledge)
As to the kind of experiment: Inhibition of COX I in vitro (radiometric assay, partially purified enzyme). It is filed as biochemical. The procedure:
(§1) The COX I and COX II inhibitory activity of compounds of this invention in vitro was determined using partially purified COX I and COX II enzymes, prepared as described in J. Barnett et. al., Biochim. Biophys.
(§2) COX I and COX II samples were diluted with Tris-HCl buffer (SOmM Tris-HCl, pH 7.9) containing 2 mM EDTA and 10% glycerol and reconstituted by incubating first with 2 mM phenol for 5 minutes and then with 1 micromolar hematin for an additional 5 minutes. 125 μl of the reconstituted COX I or COX II enzyme were preincubated for 10 minutes at room temperature in a shaking water bath with the compounds of the invention dissolved in 2-15 μl of DMSO or the carrier vehicles (control samples). The enzyme reaction was initiated by adding 25 μl of 1-[14 C]arachidonic acid (80,000-100,000 cpm/tube; 20 micromolar final concentration) and the reaction was allowed to continue for an additional 45 seconds. The reaction was terminated by adding 100 μl of 2N HCl and 750 μl water. An aliquot (950 μl) of the reaction mixture was loaded onto a 1 ml C18 Sep-Pak column (J. T. Baker, Phillipsburg, N.J.) which had been previously washed with 2-3 ml methanol and equilibrated with 5-6 ml distilled water. Oxygenated products were quantitatively eluted with 3 ml of acetonitrile/water/acetic acid (50:50:0.1, v/v) and the radioactivity in the eluate determined in a scintillation counter.

The target of the next experiment is T2, COX II (Homo sapiens, UniProt P35354).
T2 construct: made in house; baculovirus-infected insect cells according to the cited Barnett et al. 1994 (own knowledge)
T2 sequence (P35354 18-604): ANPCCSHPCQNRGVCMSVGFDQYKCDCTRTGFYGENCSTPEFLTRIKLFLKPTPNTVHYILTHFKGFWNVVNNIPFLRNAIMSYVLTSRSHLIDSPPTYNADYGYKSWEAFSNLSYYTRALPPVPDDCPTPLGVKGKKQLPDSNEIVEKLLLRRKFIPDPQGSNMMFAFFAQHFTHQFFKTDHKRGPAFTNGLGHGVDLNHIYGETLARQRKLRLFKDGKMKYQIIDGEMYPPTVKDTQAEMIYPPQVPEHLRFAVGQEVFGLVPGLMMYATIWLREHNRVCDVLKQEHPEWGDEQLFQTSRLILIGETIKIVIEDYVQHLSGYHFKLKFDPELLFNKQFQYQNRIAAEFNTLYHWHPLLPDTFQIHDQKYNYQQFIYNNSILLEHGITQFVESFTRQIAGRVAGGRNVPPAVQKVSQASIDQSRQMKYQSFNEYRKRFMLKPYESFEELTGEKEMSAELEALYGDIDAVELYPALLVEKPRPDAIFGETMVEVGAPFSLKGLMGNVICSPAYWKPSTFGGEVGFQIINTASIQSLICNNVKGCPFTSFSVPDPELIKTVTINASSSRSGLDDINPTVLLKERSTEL
As to the kind of experiment: Inhibition of COX II in vitro (radiometric assay, partially purified enzyme). It is filed as biochemical. The procedure: as §1, §2

The next experiment concerns PGE2. Description: Inhibition of eicosanoid (prostaglandin E2) synthesis in vivo, carrageenan air-pouch model in rats. Conditions: oral, male rats. Also on record: species or system rat. The procedure:
In this assay, an air-pouch is created in the rat and the PGE2 levels in the air-pouch exudate are measured by enzyme immunoassay. Briefly, male rats were anesthetized using a 60:40 CO2 :O2 mixture and subsequently injected subcutaneously with 20 ml of sterilized air, under aseptic conditions, in the proximal area of the dorsum. This injection of sterile air causes the creation of a subcutaneous "air pouch". The next day, a further 10 ml of sterile air was injected into the previously formed pouch using the same technique. […] Control rats received vehicle alone. After 30 minutes, 5 ml of a 0.5% solution of carrageenan (Sigma, Lambda Type IV) was injected into the air pouch. The rats were euthanized 3 or 6 h after the compound administration. […] The total exudate volume was recorded, and the samples were analyzed for PGE2 and 6-keto PGF1 by ELISA (Titerzyme®, PerSeptive Diagnostics, Boston, Mass.) and TxB2 by radioimmuno assay (New England Nuclear Research, Boston, Mass., Catalog No. NEK-037), according to the manufacturer's directions.
The mean concentrations of PGE2 were calculated for each group. The anti-inflammatory activity of test materials is expressed as the percent inhibition of PGE2 formation in the test group relative to the control group.

T1 sequence (P23219 24-599): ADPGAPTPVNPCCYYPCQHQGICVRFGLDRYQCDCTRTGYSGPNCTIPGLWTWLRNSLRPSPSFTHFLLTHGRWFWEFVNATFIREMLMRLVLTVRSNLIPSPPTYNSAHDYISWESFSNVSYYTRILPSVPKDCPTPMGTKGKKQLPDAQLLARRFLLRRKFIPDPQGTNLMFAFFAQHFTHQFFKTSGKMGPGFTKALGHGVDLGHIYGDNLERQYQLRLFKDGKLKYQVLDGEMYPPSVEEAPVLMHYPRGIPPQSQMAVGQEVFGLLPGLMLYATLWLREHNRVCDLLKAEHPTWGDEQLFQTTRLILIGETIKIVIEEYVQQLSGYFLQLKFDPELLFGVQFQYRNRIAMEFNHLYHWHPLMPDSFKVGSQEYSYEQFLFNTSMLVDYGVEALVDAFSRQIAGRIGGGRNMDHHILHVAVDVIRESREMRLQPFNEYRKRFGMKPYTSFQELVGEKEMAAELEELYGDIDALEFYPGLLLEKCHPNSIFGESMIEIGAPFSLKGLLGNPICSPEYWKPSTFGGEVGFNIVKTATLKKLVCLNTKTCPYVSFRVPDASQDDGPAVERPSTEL

In the case of `COc1ccc2cc(S(N)(=O)=O)ccc2c1C(=O)c1ccccc1Br` [compound 17], the “% Inhibition of paw edema” value in experiment [1] (30 mg/Kg) is reported as 19.56%.

The IC50 is the concentration needed to halve the response being measured. A low value points to greater potency in that assay. Turning to `COc1ccc2cc(S(C)(=O)=O)ccc2c1C(=O)c1ccccc1` [compound 94, 5-benzoyl-6-methoxy-2-methylsulfonylnaphthalene], the IC50 stood at 805 µM at COX I and 2.43 µM against COX II. In addition, the “% Inhibition of air pouch PGE2 formation” value in the experiment with PGE2 (10 mg/Kg) came to 17.6%.

In the case of `CS(=O)(=O)c1ccc2c(C(=O)c3ccc(Cl)cc3)c(Cl)ccc2c1` [compound 100], the values for the IC50 at COX I and against COX II were more than 100 µM and 0.25 µM, respectively. Also, in the experiment with PGE2 (3 mg/Kg), the “% Inhibition of air pouch PGE2 formation” value is 63%.

`COc1ccc2cc(S(N)(=O)=O)ccc2c1C(=O)c1ccccc1` [compound 23, 5-benzoyl-6-methoxy-2-naphthalenesulfonamide]: the “% Inhibition of air pouch PGE2 formation” value in the experiment on PGE2 (10 mg/Kg) is on record as 70.7%.

`COc1ccc2cc(S(C)(=O)=O)ccc2c1C(=O)c1ccc(F)cc1` [compound 91, 5-(4-fluorobenzoyl)-6-methoxy-2-methylsulfonylnaphthalene]: the values for the IC50 against COX I and on COX II were 90.8 µM and 0.92 µM, respectively. For the same molecule, the “% Inhibition of paw edema” value in experiment [1] (10 mg/Kg) is given as 29.48%. In addition, the “% Inhibition of air pouch PGE2 formation” value in the experiment with PGE2 (30 mg/Kg) is on record as 58.1%.

Turning to `CS(=O)(=O)c1ccc2c(C(=O)c3ccccc3F)c(C#N)ccc2c1` [compound 99, 5-(2-fluorobenzoyl)-6-cyano-2-methylsulfonylnaphthalene], the IC50 against COX I is more than 100 µM; against COX II, 0.5 µM. In experiment [1] (10 mg/Kg), the “% Inhibition of paw edema” value is reported as 38%. Further, the “% Inhibition of air pouch PGE2 formation” value in the experiment on PGE2 (3 mg/Kg) stood at 86%.

Regarding `NS(=O)(=O)c1ccc2c(C(=O)c3ccc(F)cc3)c(Cl)ccc2c1` [compound 66, 5-(4-fluorobenzoyl)-6-chloro-2-naphthalenesulfonamide], the half-inhibitory concentration (IC50) at COX I amounted to 100 µM; at COX II, 0.3 µM. Further, the “% Inhibition of paw edema” value in experiment [1] (12 mg/Kg) turned out to be 30%. Besides, the “% Inhibition of air pouch PGE2 formation” value in the experiment with PGE2 (1 mg/Kg) came to 50%.

On to `COc1ccc2cc(S(N)(=O)=O)ccc2c1C(=O)c1ccc(F)cc1` [compound 1, 5-(4-fluorobenzoyl)-6-methoxy-2-naphthalenesulfonamide], for which the IC50 against COX I was 20 µM; against COX II, 0.51 µM. Also, the “% Inhibition of paw edema” value in experiment [1] (10 mg/Kg) turned out to be 29.94%. Further, in the experiment on PGE2 (10 mg/Kg), the “% Inhibition of air pouch PGE2 formation” value stood at 92%.

Turning to `N#Cc1ccc2cc(S(N)(=O)=O)ccc2c1C(=O)c1ccc(F)cc1` [compound 64, 5-(4-fluorobenzoyl)-6-cyano-2-naphthalenesulfonamide], the values for the half-inhibitory concentration (IC50) on COX I and on COX II were 0.9 µM and 0.7 µM, respectively. In experiment [1] (6 mg/Kg), the “% Inhibition of paw edema” value was found to be 30%. Besides, the “% Inhibition of air pouch PGE2 formation” value in the experiment with PGE2 (0.5 mg/Kg) stood at 50%.

For the molecule `Cc1ccc2cc(S(N)(=O)=O)ccc2c1C(=O)c1ccc(F)cc1` [compound 65, 5-(4-fluorobenzoyl)-6-methyl-2-naphthalenesulfonamide], the figures for the IC50 against COX I and on COX II were 300 µM and 0.7 µM, respectively. Further, the “% Inhibition of paw edema” value in experiment [1] (12 mg/Kg) stood at 30%. Also, in the experiment with PGE2 (2 mg/Kg), the “% Inhibition of air pouch PGE2 formation” value is 50%.

Regarding `COc1ccc2cc(S(N)(=O)=O)ccc2c1C(=O)c1ccc(F)cc1F` [compound 20], the half-inhibitory concentration (IC50) is 6 µM against COX I and 0.45 µM on COX II. The “% Inhibition of paw edema” value in experiment [1] (30 mg/Kg) worked out at 33.85%. The “% Inhibition of air pouch PGE2 formation” value in the experiment on PGE2 (10 mg/Kg) was 100%.

On to `COc1ccc2cc(S(N)(=O)=O)ccc2c1C(=O)c1ccccc1F` [compound 14, 5-(2-fluorobenzoyl)-6-methoxy-2-naphthalenesulfonamide], for which the half-inhibitory concentration (IC50) is 47.7 µM against COX I and 0.076 µM at COX II. The “% Inhibition of air pouch PGE2 formation” value in the experiment on PGE2 (10 mg/Kg) was 58.8%.

As to `CS(=O)(=O)c1ccc2c(C(=O)c3ccc(F)cc3)c(O)ccc2c1` [compound 92, 5-(4-fluorobenzoyl)-6-hydroxy-2-methylsulfonylnaphthalene], the IC50 came to 646 µM at COX I and 5.9 µM on COX II. Moreover, the “% Inhibition of paw edema” value in experiment [1] (30 mg/Kg) came to 19.88%.

Consider `CCOc1ccc2cc(S(N)(=O)=O)ccc2c1C(=O)c1ccc(F)cc1` [compound 5], for which the results for the IC50 against COX I and on COX II were 0.46 µM and 0.56 µM, respectively. For the same molecule, in experiment [1] (30 mg/Kg), the “% Inhibition of paw edema” value stood at 27.49%.

For the molecule `COc1ccc2cc(S(C)(=O)=O)ccc2c1C(=O)c1ccc(C)cc1` [compound 103], the results for the IC50 at COX I and against COX II were 97 µM and 1.5 µM, respectively.

In the case of `CS(=O)(=O)c1ccc2c(C(=O)c3ccccc3)c(O)ccc2c1` [compound 93, 5-benzoyl-6-hydroxy-2-methylsulfonylnaphthalene], the 50% inhibitory concentration (IC50) against COX I amounted to 436 µM; against COX II, 7.84 µM. Also, the “% Inhibition of paw edema” value in experiment [1] (30 mg/Kg) was found to be 6.25%.

Consider `CS(=O)(=O)c1ccc2c(C(=O)c3ccccc3)c(C#N)ccc2c1` [compound 97, 5-benzoyl-6-cyano-2-methylsulfonylnaphthalene], for which the IC50 against COX I was more than 100 µM; at COX II, 0.8 µM. Also, the “% Inhibition of paw edema” value in experiment [1] (30 mg/Kg) worked out at 40%. The “% Inhibition of air pouch PGE2 formation” value with PGE2 (3 mg/Kg) turned out to be 90%.

For the molecule `CS(=O)(=O)c1ccc2c(C(=O)c3ccc(F)cc3)c(C#N)ccc2c1` [compound 96, 5-(4-fluorobenzoyl)-6-cyano-2-methylsulfonylnaphthalene], the IC50 is more than 100 µM on COX I and 0.8 µM on COX II. For the same molecule, the “% Inhibition of paw edema” value in experiment [1] (30 mg/Kg) is recorded as 38%. For the same molecule, the “% Inhibition of air pouch PGE2 formation” value in the experiment on PGE2 (1 mg/Kg) is on record as 90%.

On to `COc1ccc2cc(S(N)(=O)=O)ccc2c1C(=O)c1ccc(F)cc1C(F)(F)F` [compound 42], for which the IC50 on COX I came out at 40.9 µM; at COX II, 2 µM.

For the molecule `CS(=O)(=O)c1ccc2c(C(=O)c3ccc(F)cc3)cccc2c1` [compound 95, 5-(4-fluorobenzoyl)-2-methylsulfonylnaphthalene], the IC50 amounted to 1000 µM at COX I and 2.73 µM against COX II. Moreover, in experiment [1] (30 mg/Kg), the “% Inhibition of paw edema” value turned out to be 15.5%.

In the case of `COc1ccc2cc(S(N)(=O)=O)ccc2c1C(=O)c1cccc(F)c1` [compound 15, 5-(3-fluorobenzoyl)-6-methoxy-2-naphthalenesulfonamide], the half-maximal inhibitory concentration (IC50) against COX I was 62.5 µM; on COX II it was 0.68 µM.
